According to paper PMC10447463, “Data-mining unveils structure–property–activity correlation of viral infectivity enhancing self-assembling peptides” (Nature Communications, 2023):

Columns and labels:
[1] = Aggregate analysis by widefield fluorescence microscopy; assay type: physicochemical
Method: 4 µL of 1 mg/mL peptide fibrils solution is added to a 20 µL, 50 µM ThT–solution in PBS. The mixture is incubated for 15 min at RT to allow binding of ThT dye with β–sheet rich structures. For reference PBS (4 µL) was added instead of peptide fibril solution. The samples were placed in black UV Star® 384 microliter well–plates (Greiner bio–one). Fluorescence spectra were recorded on an Infinite® M1000 PRO microplate reader (Tecan) at λem = 488 nm upon excitation at λex = 440 nm with 10 nm bandwidths and multiple reads per well (3×3). Measurements were repeated in triplicates and averaged with standard deviation. A peptide fibril was considered as ThT-active if the fluorescence intensity was at least twice as strong compared to the control (PBS containing 10% DMSO). Zeta-Potential. For the determination of the surface charge of aggregated peptides zeta-potential measurements were conducted with a Zetasizer Nano ZS, Malvern Instruments. Unless stated otherwise the peptides were dissolved from DMSO (10 mg/mL) in PBS (pH 7.4) to concentration of 1 mg/mL and incubated for 1d at RT. Just before the measurement the 60 µL of the peptides were further diluted in 600 µL KCl (aq, 1 mM) in a 1 mL disposable folded capillary cells (DTS–1060, Zetasizer Nano series, Malvern). The zeta potential of the peptides was derived from the electrophoretic mobility based on the Smoluchowski formula. All measurements were averaged over two individually performed experiments and conducted in triplicates for each sample. Aggregate analysis. […] Furthermore, fluorescence microscopy was conducted by staining 1 µL preformed fibrils (1 mg/mL) with 9 µL ThT (50 µM). Brightfield microscopy was performed simultaneously to evaluate aggregation also for non ThT-active fibrils. The measurements were performed on a Leica DMi8 microscope with 10x air objective and equipped with a Leica MC170 HD camera with a filter setting λem = 527/30 nm upon excitation at λex = 480/40 nm) and processed with the Leica LASX software. To quantify size and number of microscopic aggregation of particles > 10 µm^2 at least 3 independently measured images were analyzed via the 3D object counter analysis tool of ImageJ, v 1.53f51. Sum–frequency generation. The SFG experiments were carried out with a femtosecond Ti: Sapphire amplified laser system (Spitfire Ace, Spectra–Physics, 800 nm, 40 fs, 1 kHz) with 5 W output power. We used 2 W to pump an optical parametric amplifier (TOPAS, light conversion) with a non–collinear difference frequency generation stage to generate broadband IR pulses. Another 1 W of the laser output passed through an etalon to generate narrowband visible pulses (10 cm^-1). The incident angles of the visible and IR beams were 36° and 41° with respect to the surface normal, respectively. The visible (13 µJ) and IR (5 µJ) pulses were overlapped spatially and temporally at the sample position. Subsequently, the generated SFG pulse was guided into a spectrograph (Acton SP 300i, Princeton Instruments), and detected with an EMCCD (Newton, Andor Technology). To avoid IR absorption of water vapor, we purged N2 for the measurement. All spectra were collected in the ssp (denoting s-, s- and p-polarized SFG, visible and IR, respectively) polarization combination. The spectra were normalized to the non–resonant signal taken from z–cut quartz after subtracting a background spectrum.
Table S8 Summary of aggregate analysis from widefield microscopy measurements (Figure S32). The Number of aggregated peptides, the median size area, average size area
and the cumulative total size area of all particles (> 10 µm2) in an area of 1330 µm × 1330 µm was determined via automated 3D object counting (ImageJ) in triplicate
measurements (Std. Dev.).
Aggregate Std. Dev. Std. Dev. Std. Dev. Std. Dev.
Sequence Abs. Inf. / Std. Dev. / Count Rate / Std. Dev. Number Aggregate Median Area Median Area Average Area Average Area Total Area/ Total Area/ […]

[2] = Turbidity, derived count rate of scattered light; assay type: physicochemical; conditions: for Count Rate: derived count rate of scattered light (turbidity); for Log10 Count Rate: turbidity, derived count rate of scattered light, data of Figure 2D
[3] = Fig S8 panels B, D, average aggregate area, 3 fields of 1330 µm x 1330 µm
[4] = Fig S8 panels B, D, median aggregate area, 3 fields of 1330 µm x 1330 µm
[5] = Fig S8 panels B, D, 3 fields of 1330 µm x 1330 µm
[6] = Fig S8 panels B, D, widefield fluorescence microscopy, 3 fields of 1330 µm x 1330 µm
[7] = Fig S8 panels A, C, 3 fields of 1330 µm x 1330 µm

| Substance | Avg Area in 3 *(1330 µm *1330 µm) [1, 3] | Median Area in 3 * (1330 µm *1330 µm) [1, 4] | Total Area of all particles in 3 * (1330 µm *1330 µm) [1, 5] | Number of aggregates in 3 * (1330 µm *1330 µm) [1, 6] | Count Rate [2] | Log10 Count Rate [2] | Avg Area in 3 *(1330 µm *1330 µm) ([1]; Fig S8 panels A, C) | Log 10 Number of aggregates in 3 * (1330 µm *1330 µm) ([1]; Fig S8 panels A, C) | Median Area in 3 * (1330 µm *1330 µm) ([1]; Fig S8 panels A, C) | log Avg Area in 3 * ( (1330 µm *1330 µm)) ([1]; Fig S8 panels A, C) | log Median Area in 3 * ( (1330 µm *1330 µm)) ([1]; Fig S8 panels A, C) | log Total Area of all particles in 3 * (1330 µm *1330 µm) ([1]; Fig S8 panels A, C) | Number of aggregates in 3 * (1330 µm *1330 µm) [1, 7] |
| --- | --- | --- | --- | --- | --- | --- | --- | --- | --- | --- | --- | --- | --- |
| QCKAKAQA [CK24] | 0 | 0 | 0 | 0 |  |  |  |  |  |  |  |  |  |
| KFKFQFNMW |  |  |  |  | 610.2 | 2.785 |  |  |  |  |  |  |  |
| CKIKQII [MG4a] | 110.6 | 36.476 | 8372.136 | 75.67 |  |  | 110.6 | 1.8789 | 36.476 | 2.044 | 1.562 | 3.923 | 75.67 |
| CKFKQFFNM [CK14] | 31.08 | 15.21 | 21881.13867 | 704 |  |  | 31.08 | 2.848 | 15.21 | 1.4925 | 1.182 | 4.34 | 704 |
| CKWKWQW [KB4] | 95.93 | 29.43 | 8346 | 87 |  |  | 95.93 | 1.94 | 29.43 | 1.982 | 1.469 | 3.921 | 87 |
| CKIKIQINMWQ |  |  |  |  | 1881 | 3.274 |  |  |  |  |  |  |  |
| RGDKIKIQI |  |  |  |  | 298.1 | 2.474 |  |  |  |  |  |  |  |
| KLKQLL |  |  |  |  | 319.9 | 2.505 |  |  |  |  |  |  |  |
